One molecule from patent publication US20240344241A1, “PROTEINACEOUS MOLECULES AND USES THEREFOR” (THE UNIVERSITY OF QUEENSLAND, priority 2021, published 2024) can be followed below.

Bridge positions count the residues as written; N and C are the ends. Peptide text beside a SMILES is read from it.

Data set [1] has as its target T1, biotinylated human β-FXIIa (Homo sapiens, UniProt P00748).
T1 construct: purchased Molecular Innovations
As to the kind of experiment: Surface plasmon resonance binding to FXIIa. As for the experimental part:
Binding kinetics of each peptide towards biotinylated human β-FXIIa (Molecular Innovations) and non-labelled zymogen FXII (Haematologic Technologies) were determined using a Biacore T200 machine (Cytiva). For β-FXIIa binding measurements, the running buffer was HBS-EP+(10 mM HEPES, 150 mM NaCl, 3 mM EDTA and 0.05% (v/v) surfactant P20, pH 7.4). Biotinylated β-FXIIa was immobilized on a Sensor Chip CAP (Cytiva) using Biotin CAPture Reagent (Cytiva). A series of concentrations of each peptide were injected as analyte and the binding kinetics were modelled using a 1:1 binding model. Regeneration of sensor surface was performed after each measurement cycle. For FXII binding measurements, the running buffer was PBST (137 mM NaCl, 2.7 mM KCl, 10 mM Na2HPO4, 1.8 mM KH2PO4, 0.05% Tween-20). Non-labelled FXII was immobilized on a Sensor Chip CM5 (Cytiva) using Amine Coupling Kit (Cytiva), achieving a final immobilization level of 2500 RU. Each peptide was flowed through immobilized FXII at 5 μM for 60 s and allowed dissociation for 150 s.

Data set [2] deals with T2, Human thrombin (Homo sapiens, UniProt P00734).
T2 construct: Human β-FXIIa was obtained from Molecular Innovations, together with human FXa, human FXIa, human α-thrombin, and human plasma kallikrein; purchased Molecular Innovations; host or cells: purified from human plasma
The experiment in a line: Thrombin inhibition assay. In kind it is biochemical. The procedure:
(§1) The activity of acyclic and cyclic MCoFx1-5 and analogues thereof was assessed in competitive inhibition assays, as previously described in Swedberg et al. (2016) J Med Chem, 59: 7287-7292. Human β-FXIIa was obtained from Molecular Innovations, together with human FXa, human FXIa, human α-thrombin, and human plasma kallikrein. Human cationic trypsin and human plasmin were obtained from Sigma-Aldrich, and recombinant human matriptase was sourced from R&D Systems. Recombinant human urokinase (uPA) and recombinant human tissue plasminogen activator (tPA) were expressed in Expi293 cells, as previously described in Li et al. (2019) Chembiochem, 20: 46-50. FXIIa inhibition assays were performed in clear, low-binding 96-well plates using 250 μL (final volume) of assay buffer (0.1 M Tris-HCl pH 8.0, 0.1 M NaCl, 10 mM CaCl2 and 0.005% Triton X-100). Inhibitors were serially diluted and incubated with 10 nM FXIIa at room temperature to reach equilibrium. After adding 100 μM Ac-QRFR-pNA substrate (KM=162 μM), enzymatic activity was measured by monitoring release of the pNA moiety using a TECAN infinite M1000 Pro plate reader (A=405 nm, reading interval, 10 s; assay time course, 7 min). Assays were conducted in three times in duplicate. Substrate kinetic constants (Michaelis-Menten) and inhibition constants (Morrison K) were determined by non-linear regression using Prism 7 (GraphPad). Selectivity assays with off-target proteases were performed in a similar way, except that different concentrations of enzyme and substrate were used, as indicated in Table 16. For assays using a fluorescent substrate (peptide-4-methylcoumaryl-7-amide, MCA), black low-binding 96-well plates were used and activity was measured using a TECAN infinite M1000 pro plate reader (λex 360 nm, λem 460 nm, reading interval, 30 s; assay time course, 5-30 min).

In data set [3] the test system is human umbilical vein endothelial cells (HUVECs).
Protocol: HUVECs were cultured in complete EGM™-2 medium until 80% confluence under 5% CO2 at 37° C. before being seeded onto a 96-well microplate at 5,000 cells/well. Cells were grown for 24 h prior to the assay. […] Peptides were diluted tenfold with serum-free EGM™-2 medium and incubated with HUVECs in triplicate. After 24 h incubation, peptide solutions were replaced with fresh complete EGM™-2 medium before the addition of 0.05% resazurin solution (Sigma-Aldrich). Cells were incubated for another 8 h and the absorbance of the plate was measured on a microplate reader at 540 and 620 nm. H2O and 1% Triton-X were used as control for 100 and 0% viability, separately.
For data set [4], the target named is T3, Human trypsin (Homo sapiens, UniProt P07477).
T3 construct: purchased Sigma-Aldrich; host or cells: purified from human tissue
As to the kind of experiment: Trypsin competitive inhibition assay. In kind it is biochemical. The note with it: Table 10; read-out: Ki Trypsin. The essentials:
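Assays run three times in duplicate at pH 8.0 (Tris-HCl, NaCl, CaCl2, Triton X-100). Rates of pNA or MCA release after enzyme–inhibitor equilibration at room temperature were fitted by non-linear regression to the Morrison equation for Ki.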

The target of data set [5] is T4, Human FXa (Homo sapiens, UniProt P00742).
T4 construct: Human β-FXIIa was obtained from Molecular Innovations, together with human FXa, human FXIa, human α-thrombin, and human plasma kallikrein; purchased Molecular Innovations; host or cells: purified from human plasma
T4 sequence (P00742 235-488 limits assumed): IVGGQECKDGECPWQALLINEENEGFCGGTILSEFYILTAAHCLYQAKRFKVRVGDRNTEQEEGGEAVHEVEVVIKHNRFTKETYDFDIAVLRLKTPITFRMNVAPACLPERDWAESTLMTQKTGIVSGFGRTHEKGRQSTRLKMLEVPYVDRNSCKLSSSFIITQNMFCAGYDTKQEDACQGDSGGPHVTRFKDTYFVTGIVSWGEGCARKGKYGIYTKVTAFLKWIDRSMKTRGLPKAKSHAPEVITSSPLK
T4 sequence (P00742 41-179 partner limits assumed): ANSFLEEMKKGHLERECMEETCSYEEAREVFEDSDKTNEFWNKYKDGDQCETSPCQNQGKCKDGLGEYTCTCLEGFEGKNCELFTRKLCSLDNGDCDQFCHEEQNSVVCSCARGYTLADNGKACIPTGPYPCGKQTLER
As to the kind of experiment: FXa inhibition assay. In kind it is biochemical. As for the experimental part: as §1

Data set [6] addresses T5, Human plasmin (Homo sapiens, UniProt P00747).
T5 construct: Human cationic trypsin and human plasmin were obtained from Sigma-Aldrich, and recombinant human matriptase was sourced from R&D Systems; purchased Sigma-Aldrich; host or cells: purified from human plasma
As to the kind of experiment: Plasmin inhibition assay. The class given is biochemical. The procedure:
as §1

Data set [7] addresses T6, Human FXIa (Homo sapiens, UniProt P03951).
T6 construct: Human β-FXIIa was obtained from Molecular Innovations, together with human FXa, human FXIa, human α-thrombin, and human plasma kallikrein; purchased Molecular Innovations; host or cells: purified from human plasma
As to the kind of experiment: FXIa inhibition assay. In kind it is biochemical. The procedure:
as §1

The target of data set [8] is T7, Rec. human tPA (Homo sapiens, UniProt P00750).
T7 construct: made in house; host or cells: Expi293 cells
T7 sequence (P00750 36-562): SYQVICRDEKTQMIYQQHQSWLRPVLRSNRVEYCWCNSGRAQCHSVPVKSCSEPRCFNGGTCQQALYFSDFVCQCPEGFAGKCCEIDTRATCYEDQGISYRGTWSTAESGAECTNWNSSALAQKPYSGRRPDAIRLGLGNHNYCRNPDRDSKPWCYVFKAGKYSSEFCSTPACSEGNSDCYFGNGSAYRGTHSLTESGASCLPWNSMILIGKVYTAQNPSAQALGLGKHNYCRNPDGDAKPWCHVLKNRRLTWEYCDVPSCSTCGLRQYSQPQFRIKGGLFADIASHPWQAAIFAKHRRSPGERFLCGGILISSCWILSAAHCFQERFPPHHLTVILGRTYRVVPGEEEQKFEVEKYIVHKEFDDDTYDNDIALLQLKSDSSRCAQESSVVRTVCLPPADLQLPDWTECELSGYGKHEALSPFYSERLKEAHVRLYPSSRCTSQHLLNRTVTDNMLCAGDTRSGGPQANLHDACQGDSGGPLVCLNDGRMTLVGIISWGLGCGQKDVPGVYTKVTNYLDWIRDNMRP
The experiment in a line: tPA inhibition assay. In kind it is biochemical. The procedure:
as §1

Data set [9] relates to clotting via the intrinsic pathway. As to the kind of experiment: Activated partial thromboplastin time (aPTT) assay in human plasma. In kind it is biochemical. An excerpt:
Citrated, platelet-poor plasma samples from healthy adults were collected, prepared, and stored using previously established collection protocols, such as in Zdenek et al. (2019) Toxicol in Vitro, 58: 97-109.
Standard coagulation assays were used to determine the effect of the inhibitors on the clotting time of human plasma. Activated partial thromboplastin time (aPTT) uses a Kaolin reagent (clay) to activate the intrinsic/contact pathway of the coagulation cascade, whereas prothrombin time (PT) uses Neoplastine (lyophilized thromboplastin prepared from rabbit cerebral tissue) to activate the extrinsic/tissue-factor pathway of the coagulation cascade. A minor adjustment was made to both tests (addition of 25 μL inhibitor or buffer; refer to Table 17) to accommodate the addition of an inhibitor without changing the total volume (and therefore relative ratios of additives) of the assay. Concentrations of inhibitor are reported as the concentration at the point of incubation in the assay, i.e. not taking into account the addition of the start reagent (calcium for aPTT, or Neoplastine for PT).
Clotting time (seconds) of plasma was automatically measured using a STA-R Max® analyzer (Stago, Asnieres sur Seine, France). Measurements were conducted using a viscosity-based (mechanical) detection system, whereby opposing magnets oscillate a small metal spherical pellet inside the test cuvette (250 μL total volume) until a clot is formed. Dilution of the inhibitor in Owren-Koller (OK) buffer for dose-response curves was performed automatically by the machine. Reagents were kept at 15-19° C. in the machine during experimentation and otherwise stored at 4° C. All tests were performed in triplicate.

For data set [10], the target named is T8, Rec. human uPA (Homo sapiens, UniProt P00749).
T8 construct: made in house; host or cells: Expi293 cells
The experiment in a line: uPA inhibition assay. The class given is biochemical. The procedure: as §1

T1 sequence (P00748 373-615 limits assumed, other chains not shown): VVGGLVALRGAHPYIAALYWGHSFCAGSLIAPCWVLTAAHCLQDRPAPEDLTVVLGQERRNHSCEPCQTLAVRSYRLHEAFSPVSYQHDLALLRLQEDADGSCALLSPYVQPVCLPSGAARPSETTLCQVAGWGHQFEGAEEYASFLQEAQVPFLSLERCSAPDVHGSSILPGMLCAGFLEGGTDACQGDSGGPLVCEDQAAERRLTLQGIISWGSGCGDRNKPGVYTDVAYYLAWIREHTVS
T6 sequence (P03951 388-625 limits assumed): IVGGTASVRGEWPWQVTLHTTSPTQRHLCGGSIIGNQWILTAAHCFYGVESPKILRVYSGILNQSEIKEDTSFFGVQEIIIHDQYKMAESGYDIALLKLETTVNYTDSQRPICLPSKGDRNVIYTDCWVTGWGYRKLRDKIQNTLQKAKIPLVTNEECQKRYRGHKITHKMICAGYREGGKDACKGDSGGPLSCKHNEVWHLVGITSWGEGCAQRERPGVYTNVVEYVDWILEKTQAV
T6 sequence (P03951 19-387 partner limits assumed): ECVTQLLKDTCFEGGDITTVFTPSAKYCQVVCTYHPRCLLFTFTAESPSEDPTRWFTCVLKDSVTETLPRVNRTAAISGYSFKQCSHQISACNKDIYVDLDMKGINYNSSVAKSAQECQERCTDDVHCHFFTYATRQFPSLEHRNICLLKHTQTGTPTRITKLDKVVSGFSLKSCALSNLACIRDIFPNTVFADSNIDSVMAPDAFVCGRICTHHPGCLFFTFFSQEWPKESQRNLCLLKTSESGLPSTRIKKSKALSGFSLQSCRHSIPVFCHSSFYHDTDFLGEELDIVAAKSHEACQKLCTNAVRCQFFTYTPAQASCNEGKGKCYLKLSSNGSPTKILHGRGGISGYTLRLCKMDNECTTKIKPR
T5 sequence (P00747 581-810 limits assumed): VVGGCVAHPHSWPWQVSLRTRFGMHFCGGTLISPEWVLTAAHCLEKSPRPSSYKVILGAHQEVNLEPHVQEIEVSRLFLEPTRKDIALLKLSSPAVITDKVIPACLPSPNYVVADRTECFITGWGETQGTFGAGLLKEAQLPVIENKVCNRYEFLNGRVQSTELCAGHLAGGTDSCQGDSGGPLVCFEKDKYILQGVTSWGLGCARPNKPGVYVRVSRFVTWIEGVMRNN
T5 sequence (P00747 97-580 partner limits assumed): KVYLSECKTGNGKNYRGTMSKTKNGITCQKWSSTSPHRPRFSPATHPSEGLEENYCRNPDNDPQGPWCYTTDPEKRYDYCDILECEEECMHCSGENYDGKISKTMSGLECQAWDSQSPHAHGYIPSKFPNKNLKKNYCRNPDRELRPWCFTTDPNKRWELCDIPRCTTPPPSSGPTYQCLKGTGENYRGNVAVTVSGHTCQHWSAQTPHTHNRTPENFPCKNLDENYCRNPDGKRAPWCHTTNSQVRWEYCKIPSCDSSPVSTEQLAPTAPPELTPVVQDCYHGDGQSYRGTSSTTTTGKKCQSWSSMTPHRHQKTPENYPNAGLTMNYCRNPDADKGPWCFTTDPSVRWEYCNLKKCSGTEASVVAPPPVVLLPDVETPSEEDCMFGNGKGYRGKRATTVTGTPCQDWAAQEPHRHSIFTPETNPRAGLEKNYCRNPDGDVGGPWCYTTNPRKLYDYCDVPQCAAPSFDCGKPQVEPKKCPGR

By Kd is commonly meant the concentration at which binding is half-saturated. One may read the inhibition as the change of the read-out against control, counted positive when it falls. A word on the IC50: it is the concentration needed to halve the response being measured. One may read the Ki as a measure of affinity in units of concentration, obtained from inhibition or displacement. Consider `CC[C@H](C)[C@@H]1NC(=O)CNC(=O)CNC(=O)[C@H](CC(=O)O)NC(=O)[C@H](Cc2ccc(O)cc2)NC(=O)CNC(=O)[C@H](CO)NC(=O)CNC(=O)[C@@H]2CSSC[C@@H]3NC(=O)[C@H](CC(=O)O)NC(=O)[C@H](CO)NC(=O)[C@H](CC(=O)O)NC(=O)[C@H](CCCNC(=N)N)NC(=O)[C@H](CCCNC(=N)N)NC(=O)[C@@H]4CSSC[C@H](NC(=O)[C@H]([C@@H](C)CC)NC(=O)[C@H](CSSC[C@H](NC1=O)C(=O)N1CCC[C@H]1C(=O)N[C@@H](CCCNC(=N)N)C(=O)N[C@@H]([C@@H](C)CC)C(=O)NCC(=O)N[C@@H](CCCNC(=N)N)C(=O)N[C@@H](CC(C)C)C(=O)N4)NC(=O)[C@H](C)NC(=O)CNC(=O)[C@@H]1CCCN1C3=O)C(=O)N[C@@H](CCCNC(=N)N)C(=O)N[C@@H](C)C(=O)N[C@@H]([C@@H](C)O)C(=O)N[C@@H](CCCNC(=N)N)C(=O)N[C@@H](Cc1ccccc1)C(=O)N2` [MCoFx1 cyclic] (cyclo(ACICRATRFCGSGYDGGICPRIGRLCRRDSDCPG); disulfide 2-19, 4-26, 10-32), for which, in [1] (Table 7, FXIIa, cyclic form of the peptide, read-out: KD (nM) Cyclic), the dissociation constant Kd turned out to be 0.9 ± 0.04 nM. In data set [1] (ratio of KD values), the “fold higher affinity for FXIIa than MCoTI-II” value is listed as 60 fold. For the same molecule, the inhibition at 5 µM came out at 2% in [2] (at 5 μM, read-out: percent inhibition Thrombin); 0% in data set [5] (at 5 μM, read-out: percent inhibition FXa); 13% in data set [6] (at 5 μM, read-out: percent inhibition Plasmin); 0% in data set [7] (at 5 μM, read-out: percent inhibition FXIa); 0% in [8] (at 5 μM, read-out: percent inhibition tPA); 0% in [10] (at 5 μM, read-out: percent inhibition uPA). The IC50 in data set [2] (read-out: IC50 Thrombin), in [5] (read-out: IC50 FXa), in data set [6] (read-out: IC50 Plasmin), in data set [7] (read-out: IC50 FXIa), in [8] (read-out: IC50 tPA) and in data set [10] (read-out: IC50 uPA) was above 5 µM each time. In addition, in data set [3], the “cytotoxicity to HUVECs” value is “not toxic”. Also, the Ki in data set [4] was found to be 1.11 µM. Besides, the “EC2× (concentration required to double the clotting time)” value in data set [9] was found to be 702 nM.
